Assay results taken from patent US8710198B2, “Caprazene as a novel compound and derivatives thereof, and caprazol as a novel compound and derivatives thereof” (Meiji Seika Pharma Co., Ltd., priority 2003, dated 2014).

Key:
Assay type in all cases: cell-based
[1] = system: Mycobacterium smegmatis ATCC607; assay: Minimum growth inhibitory concentration on agar culture medium with 1% glycerine by serial dilution method; settings: agar culture medium with the addition of 1% glycerine
Description: (§1) Minimum growth inhibitory concentrations (mcg/ml) of caprazene-1′″-amide derivatives of the formula (II) against some of microorganisms were measured on an agar culture medium by a serial dilution method according to the standard method as provided by Japanese Society of Chemotherapy. For the cultivation of Mycobacterium smegmatis (one of […]), however, there was used an agar culture medium with the addition of 1% glycerine (the same applies to in the following tests).
(§2) Minimum growth inhibitory concentrations (mcg/ml) of some of the caprazene-1′″-ester derivative of the formula (III) against some of microorganisms were measured on an agar culture medium by a serial dilution method according to the standard method as provided by Japanese Society of Chemotherapy.
(§3) Minimum growth inhibitory concentrations (mcg/ml) of some of the caprazol-1′″-amide derivative of the formula (V) against a variety of microorganisms were measured on an agar medium by a serial dilution method according to the standard method as provided by Japanese Society of Chemotherapy.
(§4) Minimum growth inhibitory concentrations (mcg/ml) of some of the caprazol-1′″-amide-3′″-ester derivative of the formula (VI) against a variety of microorganisms were measured on an agar medium by a serial dilution method according to the standard method as provided by Japanese Society of Chemotherapy.
(§5) Minimum growth inhibitory concentrations (mcg/ml) of some of the caprazol-3′″-ester derivative or caprazol-1′″-ester-3′″-ester derivative of the formula (VII) against a variety of microorganisms were measured on an agar medium by a serial dilution method according to the standard method as provided by Japanese Society of Chemotherapy.

Micrococcus luteus FDA16 = assay: Minimum growth inhibitory concentration on agar culture medium by serial dilution method (Japanese Society of Chemotherapy)
Description: as §1, §2, §3, §4, §5
(§6) Minimum growth inhibitory concentrations (mcg/ml) of some of the derivative of the formula (VIII) against a variety of microorganisms were measured on an agar medium by a serial dilution method according to the standard method as provided by Japanese Society of Chemotherapy.

[2] = system: Staphylococcus aureus FDA209P; assay: as above
Description: as §1, §2, §3, §4, §5, §6

SMILES | Minimum growth inhibitory concentration (mcg/ml) against bacteria Mycobacterium smegmatis ATCC607 [1] [µg/mL] | Minimum growth inhibitory concentration (mcg/ml) against bacteria Micrococcus luteus FDA16 (Micrococcus luteus FDA16) [µg/mL] | Minimum growth inhibitory concentration (mcg/ml) against bacteria Staphylococcus aureus FDA209P [2] [µg/mL]
CCCCCCCCCCCCCNC(=O)C1=CCN(C)C(C(OC2OC(CN)C(O)C2O)C2OC(n3ccc(=O)[nH]c3=O)C(O)C2O)C(=O)N1C (stereo not drawn) [Compound II-H] | <0.20 | 0.78 | 3.13
CCCCCCCCCCCCCCNC(=O)C1=CCN(C)C(C(OC2OC(CNC(=O)OC(C)(C)C)C(O)C2O)C2OC(n3ccc(=O)[nH]c3=O)C(O)C2O)C(=O)N1C (stereo not drawn) [Compound II-I-N-Boc] | 25 | 12.5 | 12.5
CCCCCCCCCCCCCCNC(=O)C1=CCN(C)C(C(OC2OC(CN)C(O)C2O)C2OC(n3ccc(=O)[nH]c3=O)C(O)C2O)C(=O)N1C (stereo not drawn) [Compound II-I] | 0.78 | 0.78 | 3.13
CCCCCCCCCCCCCCCNC(=O)C1=CCN(C)C(C(OC2OC(CNC(=O)OC(C)(C)C)C(O)C2O)C2OC(n3ccc(=O)[nH]c3=O)C(O)C2O)C(=O)N1C (stereo not drawn) [Compound II-J-N-Boc] | 25 | 12.5 | 12.5
CCCCCCCCCCCCCCCNC(=O)C1=CCN(C)C(C(OC2OC(CN)C(O)C2O)C2OC(n3ccc(=O)[nH]c3=O)C(O)C2O)C(=O)N1C (stereo not drawn) [Compound II-J] | 1.56 | 0.78 | 1.56
CCCCCCCCCCCCCCCCNC(=O)C1=CCN(C)C(C(OC2OC(CN)C(O)C2O)C2OC(n3ccc(=O)[nH]c3=O)C(O)C2O)C(=O)N1C (stereo not drawn) [Compound II-K] | 3.13 | 0.78 | 3.13
CCCCCCCCCCCCCCCCCNC(=O)C1=CCN(C)C(C(OC2OC(CN)C(O)C2O)C2OC(n3ccc(=O)[nH]c3=O)C(O)C2O)C(=O)N1C (stereo not drawn) [Compound II-L] | 3.13 | 1.56 | 1.56
CCCCCCCCCCCCCCCCCCNC(=O)C1=CCN(C)C(C(OC2OC(CN)C(O)C2O)C2OC(n3ccc(=O)[nH]c3=O)C(O)C2O)C(=O)N1C (stereo not drawn) [Compound II-M] | 3.13 | 0.78 | 6.25
CCCCCCCCCCCCCCCCCCCNC(=O)C1=CCN(C)C(C(OC2OC(CN)C(O)C2O)C2OC(n3ccc(=O)[nH]c3=O)C(O)C2O)C(=O)N1C (stereo not drawn) [Compound II-N] | 50 | 0.78 | 6.25
CCCCCCCCCCCCCCCCCCCCNC(=O)C1=CCN(C)C(C(OC2OC(CN)C(O)C2O)C2OC(n3ccc(=O)[nH]c3=O)C(O)C2O)C(=O)N1C (stereo not drawn) [Compound II-O] | 25 | 3.13 | 3.13
CCCCCCCCCCCCCCCCCCCCCNC(=O)C1=CCN(C)C(C(OC2OC(CN)C(O)C2O)C2OC(n3ccc(=O)[nH]c3=O)C(O)C2O)C(=O)N1C (stereo not drawn) [Compound II-P] | 50 | 3.13 | 6.25
CN1C(=O)C(C(OC2OC(CN)C(O)C2O)C2OC(n3ccc(=O)[nH]c3=O)C(O)C2O)N(C)CC=C1C(=O)NC1CCCCCCCCCCC1 (stereo not drawn) [Compound II-Q] | 3.13 | 0.20 | 100
CCCCCCCCC=CCCCCCCCCNC(=O)C1=CCN(C)C(C(OC2OC(CN)C(O)C2O)C2OC(n3ccc(=O)[nH]c3=O)C(O)C2O)C(=O)N1C (stereo not drawn) [Compound II-R] | 1.56 | 1.56 | 1.56
CCCCCCCCCCOC(=O)C1=CCN(C)C(C(OC2OC(CN)C(O)C2O)C2OC(n3ccc(=O)[nH]c3=O)C(O)C2O)C(=O)N1C (stereo not drawn) [Compound III-AA] | 12.5 | 1.56 | 12.5
CCCCCCCCCCCCCOC(=O)C1=CCN(C)C(C(OC2OC(CN)C(O)C2O)C2OC(n3ccc(=O)[nH]c3=O)C(O)C2O)C(=O)N1C (stereo not drawn) [Compound III-BB] | 12.5 | 3.13 | 3.13
CCCCCCCCCCCCCCCCCCOC(=O)C1=CCN(C)C(C(OC2OC(CN)C(O)C2O)C2OC(n3ccc(=O)[nH]c3=O)C(O)C2O)C(=O)N1C (stereo not drawn) [Compound III-CC] | >100 | 6.25 | 12.5
CCCCCCCCCC=CCOC(=O)C1=CCN(C)C(C(OC2OC(CN)C(O)C2O)C2OC(n3ccc(=O)[nH]c3=O)C(O)C2O)C(=O)N1C (stereo not drawn) [Compound III-EE] | 12.5 | 1.56 | 6.25
CCCCCCC#CCCOC(=O)C1=CCN(C)C(C(OC2OC(CN)C(O)C2O)C2OC(n3ccc(=O)[nH]c3=O)C(O)C2O)C(=O)N1C (stereo not drawn) [Compound III-GG] | 25 | 6.25 | 50
CCCCCCNC(=O)C1C(O)CN(C)C(C(OC2OC(CN)C(O)C2O)C2OC(n3ccc(=O)[nH]c3=O)C(O)C2O)C(=O)N1C (stereo not drawn) [Compound V-A] | 12.5 | 50 | 50
CCCCCCCCNC(=O)C1C(O)CN(C)C(C(OC2OC(CN)C(O)C2O)C2OC(n3ccc(=O)[nH]c3=O)C(O)C2O)C(=O)N1C (stereo not drawn) [Compound V-C] | 6.25 | 25 | 25
CCCCCCCCCCNC(=O)C1C(O)CN(C)C(C(OC2OC(CN)C(O)C2O)C2OC(n3ccc(=O)[nH]c3=O)C(O)C2O)C(=O)N1C (stereo not drawn) [Compound V-E] | 6.25 | 25 | 25
